{"source": "patent US20240060990A1", "about": "“SPATIAL SIGNALING NETWORKS FOR MULTIPLEXED DRUG RESPONSE MEASUREMENT AND MODELING” (Georgia Tech Research Corporation, priority 2022, published 2024)", "key": {"cyclin D1/CDK4": {"test_system": "cyclin D1/CDK4", "experiment": "RapMPI (multiplexed PLA) PPI counts in HCC827 cells, 9 PPI panel", "format": "cell-based, human", "details": "12 hours, 9 PPI dataset", "procedure": "(§1) Following that, the cells were then fixed and permeabilized with 1.6% formaldehyde in 1×PBS for 10 minutes at RT and 0.5% Triton X-100 for 10 minutes at RT, respectively. The cells were then blocked using a cell staining medium (CSM) containing 0.5% BSA, and 0.02% Sodium Azide in PBS. […] HCC827 cells were stained with p-ERK overnight followed by 1-hour incubation of secondary antibodies at RT, and 10 mins DAPI staining. The cells were then imaged at 40× magnification, and the intensity levels were analyzed. […] The coverslip was mounted to an acrylic holder for multiple cycles of staining.\n(§2) RapMPI on cell cultures: For single color detection, each coverslip prepared with cells was stained with multiple PPIs with one PPI per cycle. The cells were fixed, permeabilized, and then ready for the following staining steps: 1) block the sample with Duolink blocking solution; 2) incubate it with one pair of proteins, conjugated to one PLUS and one MINUS oligonucleotide at 4° C. overnight.\n(§3) For multicolor detection, after permeabilization, the cells underwent the following steps: 1) block the sample with Duolink blocking solution; 2) incubate it with two pair of proteins, conjugated to one pair of oligonucleotides at 4° C. overnight. […] After imaging, the samples were incubated with DNase at a 1:50 dilution rate for 4 hours at RT, followed by 3 times 30% formamide washes and 3 times 1×PBS washes.\n(§4) PPI detection: PPI signals were detected using a custom algorithm leveraging a traditional image processing pipeline. More specifically, each PPI image was preprocessed as followed: images were first transformed using a top-hat filter of size 3 pixels to reduce the noise around PPI signals, then Laplacian of Gaussian images was used to detect bright local maxima as PPI signals. In 3D images, double detection of PPI was filtered out at the same position in consecutive Z stacks. After detecting all the PPI locations in 3D, PPI was observed within a 2.5-pixel radius (0.045 um) by creating a PPI neighborhood graph of radius threshold 2.5 pixels and getting all connected components in the graph. Finally, the mean position of the unique connected components in the graph was extracted as identified unique PPI signals in 3D."}, "Bim/Tom20": {"test_system": "Bim/Tom20", "experiment": "RapMPI (multiplexed PLA) PPI counts in HCC827 cells, 9 PPI panel", "format": "cell-based, human", "details": "12 hours, 9 PPI dataset", "procedure": "as §1, §2, §3, §4"}, "sox2/oct4": {"test_system": "sox2/oct4", "experiment": "RapMPI (multiplexed PLA) PPI counts in HCC827 cells, 9 PPI panel", "format": "cell-based, human", "details": "12 hours, 9 PPI dataset", "procedure": "as §1, §2, §3, §4"}, "NF-κB/p-p90RSK": {"test_system": "NF-κB/p-p90RSK", "experiment": "RapMPI (multiplexed PLA) PPI counts in HCC827 cells, 9 PPI panel", "format": "cell-based, human", "details": "12 hours, 9 PPI dataset", "procedure": "as §1, §2, §3, §4"}, "p-AKT/mTOR": {"test_system": "p-AKT/mTOR", "experiment": "RapMPI (multiplexed PLA) PPI counts in HCC827 cells", "format": "cell-based, human", "details": "100 nM, 12 h, 5 PPI dataset", "procedure": "as §1, §2, §4"}, "Cyclin E/CDK2": {"test_system": "Cyclin E/CDK2", "experiment": "RapMPI (multiplexed PLA) PPI counts in HCC827 cells", "format": "cell-based, human", "details": "100 nM, 12 h, 5 PPI dataset", "procedure": "as §1, §2, §4"}, "c-MYC": {"test_system": "c-MYC", "details": "EGFRm-sensitive cells; cited from earlier work"}, "p-EGFR (Tyr1086)": {"test_system": "p-EGFR (Tyr1086)", "experiment": "p-EGFR immunofluorescence across four drug concentrations", "format": "cell-based, human", "details": "PC9 cells, 48 hours", "procedure": "Following that, the cells were then fixed and permeabilized with 1.6% formaldehyde in 1×PBS for 10 minutes at RT and 0.5% Triton X-100 for 10 minutes at RT, respectively (FIG. 10A). The cells were then blocked using a cell staining medium (CSM) containing […]. […] PC9 cells were stained with p-EGFR and β-tubulin overnight followed by 1-hour incubation of secondary antibodies at RT, and 15 mins DAPI staining. The cells were then imaged at 40× magnification, and the cell number was analyzed using ImageJ. […] The coverslip was mounted to an acrylic holder for multiple cycles of staining."}, "[1]": {"test_system": "HCC827-derived mouse xenografts", "experiment": "Tumor growth of HCC827-derived xenografts in mice", "format": "in vivo", "details": "daily Osimertinib"}, "PC9 cells": {"test_system": "PC9 cells", "details": "0 to 10 nM, 3-day treatment; cited from earlier work"}, "p-EGFR (Y1173)": {"test_system": "p-EGFR (Y1173)", "details": "PC9 cells; cited from earlier work"}}, "note": "Entries after “also recorded” stand apart in the source; their conditions may differ.", "data": [{"smiles": "C=CC(=O)Nc1cc(Nc2nccc(-c3cn(C)c4ccccc34)n2)c(OC)cc1N(C)CCN(C)C", "note": "[Osimertinib]", "values": [{"measurement": "cyclin D1/CDK4 PPI", "setting": "cyclin D1/CDK4", "result": "inhibitory effect"}, {"measurement": "interactions between Tom20 and Bim", "setting": "Bim/Tom20", "result": "Reduced interactions"}, {"measurement": "sox2/oct4 PPI", "setting": "sox2/oct4", "result": "downregulation"}, {"measurement": "NF-κB/p-p90RSK PPI", "setting": "NF-κB/p-p90RSK", "result": "effectively inhibited"}, {"measurement": "p-AKT/mTOR interactions in the cytoplasm", "setting": "p-AKT/mTOR", "result": "downregulated the p-AKT/mTOR pathway reducing the interactions in the cytoplasm"}, {"measurement": "interaction between cyclin E and CDK2 (PPI count)", "setting": "Cyclin E/CDK2", "result": "effectively inhibited"}, {"measurement": "c-MYC degradation", "setting": "c-MYC", "result": "induce the degradation of c-MYC"}, {"measurement": "p-EGFR expression, 60 nM vs 40 nM", "setting": "p-EGFR (Tyr1086)", "result": "relatively higher expression under 60 nM than 40 nM"}, {"measurement": "p-EGFR expression", "setting": "p-EGFR (Tyr1086); 0 to 20 nM to 40 nM, normalized to β-tubulin", "result": "decreased the p-EGFR expression as the drug concentration increased from 0 to 20 nM to 40 nM"}, {"measurement": "tumor", "setting": "[1]; 5-day treatment", "result": "almost disappeared"}, {"measurement": "tumor as treatment continued (acquired resistance)", "setting": "[1]; continued treatment", "result": "grew back and larger"}, {"measurement": "xenograft growth", "setting": "[1]; first week", "result": "effectively inhibited for the first week"}, {"measurement": "cell survival rate", "setting": "PC9 cells", "result": "decreased as the concentration has increased from 0 to 10 nM; also recorded: decreased as the concentration was increased from 0 to 10-nM"}, {"measurement": "p-EGFR (Y1173) level", "setting": "p-EGFR (Y1173)", "result": "decreased the p-EGFR (Y1173) level"}]}]}
